In US12098139B2, “Chemokine receptor modulators and uses thereof” (RAPT Therapeutics, Inc., priority 2018, dated 2024) one finds IC50 data, which are given here for 20 molecules.

This test has as its target T1, hCCR4 (Chem5-hCCR4 cells) (Homo sapiens, UniProt P51679).
T1 sequence (P51679 1-360): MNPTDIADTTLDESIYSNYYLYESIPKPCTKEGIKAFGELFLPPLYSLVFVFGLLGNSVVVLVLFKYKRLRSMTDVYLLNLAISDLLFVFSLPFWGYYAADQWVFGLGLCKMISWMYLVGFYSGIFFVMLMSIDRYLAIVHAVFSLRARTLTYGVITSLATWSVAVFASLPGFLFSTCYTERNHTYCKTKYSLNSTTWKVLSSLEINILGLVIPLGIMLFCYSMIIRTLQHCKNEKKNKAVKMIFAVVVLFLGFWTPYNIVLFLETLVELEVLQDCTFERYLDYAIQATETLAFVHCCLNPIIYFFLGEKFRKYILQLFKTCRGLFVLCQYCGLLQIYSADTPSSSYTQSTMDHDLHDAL
Kind of test: Calcium flux assay (CCL22-stimulated, FLIPR Calcium 6 dye). It is filed as cell-based. The note with it: Table 3, CCL22 1.5 nM, read-out: Potency (IC50). On the procedure:
Calcium Flux Assay. Compounds were evaluated in a calcium flux assay substantially performed as follows. Chem5-hCCR4 cells (EMD Millipore, Hayward, CA; HTS009C) were cultured under standard conditions and frozen in aliquots of 10×10^6 cells/mL. The day prior to compound testing, a vial was rapidly thawed and pipetted into 20 mL media (DMEM+10% FBS+1% Pen-Strep+1% L-glutamine). Cells were harvested by centrifugation and re-suspended in fresh culture medium. 25 μL of cell suspension was seeded into 384-well plates (Corning, Tewksbury, MA; CellBind with black wall/clear bottom). The plates were centrifuged at 300 g for 10 seconds and incubated overnight at 37° C. and 5% CO2. The day of compound testing, media was removed from the plates and 25 μL serum free media was added to each well. Plates were returned to the incubator for 2 h. 25 μL assay buffer (Hank's balanced salt solution+20 mM HEPES pH 7.4) containing FLIPR Calcium 6 dye (Molecular Devices, Sunnyvale, CA; #R8191) and probenecid (2.5 mM) was added to each well and incubated at 37° C. and 5% CO2 for 2 h. Compounds in DMSO were added to the plates using an HP D300e digital dispenser, and all wells were normalized to contain 0.25 μL (0.5%) DMSO. Plates were incubated for 1 hour at 37° C. and 5% CO2. CCL22 (Peprotech; Rockyhill, NJ) was diluted in assay buffer containing 0.1% BSA to 7.5 nM (corresponding to 5×EC80 of 1.5 nM).
Assay plates and working solution of CCL22 were transferred to the FlexStation plate reader (Molecular Devices) at 37° C. for 5 min of equilibration. Fluorescence recordings at 485 excitation/525 emission were performed at 2.5 second intervals. At t=16 seconds, 12.5 μL of CCL22 solution was added to each well and reads continued for 30 seconds at 2.5 second intervals. The minimum fluorescence (Fmin) was calculated by averaging the reads prior to ligand addition and the change in fluorescence (ΔF) was calculated by subtracting the Fmin from the average of the reads following ligand addition. The response ΔF/Fmin was plotted as a function of the compound concentration and the IC50 values were determined by non-linear regression analysis using a 4-parameter fit in either PRISM software (GraphPad; La Jolla, CA) or Dotmatics Browser.
For orientation: A change in cytosolic calcium serves as a functional read-out for many receptors and channels.
As to `C[C@@H](Nc1nc(N2CC([C@H]3CCCN(CCO)C3)C2)ncc1Cl)c1ccc(Cl)cc1Cl` [Example 10, 2-((R)-3-(1-(5-chloro-4-(((R)-1-(2,4-dichlorophenyl)ethyl)amino)pyrimidin-2-yl)azetidin-3-yl)piperidin-1-yl)ethan-1-ol], the IC50 was below 100 nM.

As for `C[C@@H](Nc1nc(N2CC([C@H]3CCCN(CCO)C3)C2)ncc1Br)c1ccc(Cl)cc1Cl` [Example 11, 2-((R)-3-(1-(5-bromo-4-(((R)-1-(2,4-dichlorophenyl)ethyl)amino)pyrimidin-2-yl)azetidin-3-yl)piperidin-1-yl)ethan-1-ol], the IC50 is below 100 nM.

In the case of `C[C@@H](Nc1nc(N2CC([C@H]3CCCN([C@H]4C[C@](C)(C(=O)O)C4)C3)C2)ncc1Cl)c1ccc(Cl)cc1Cl` [Example 12, (1R,3r)-3-((R)-3-(1-(5-chloro-4-(((R)-1-(2,4-dichlorophenyl)ethyl)amino)pyrimidin-2-yl)azetidin-3-yl)piperidin-1-yl)-1-methylcyclobutane-1-carboxylic acid], the IC50 was below 100 nM.

Regarding `C[C@@H](Nc1nc(N2CC([C@H]3CCCN([C@H]4C[C@](C)(C(=O)O)C4)C3)C2)ncc1Br)c1ccc(Cl)cc1Cl` [Example 13, (1R,3r)-3-((R)-3-(1-(5-bromo-4-(((R)-1-(2,4-dichlorophenyl)ethyl)amino)pyrimidin-2-yl)azetidin-3-yl)piperidin-1-yl)-1-methylcyclobutane-1-carboxylic acid], the IC50 was below 100 nM.

As to `C[C@@H](Nc1nc(N2CC([C@H]3CCCN(CCO)C3)C2)ncc1C#N)c1ccc(Cl)cc1Cl` [Example 14, 4-(((R)-1-(2,4-dichlorophenyl)ethyl)amino)-2-(3-((R)-1-(2-hydroxyethyl)piperidin-3-yl)azetidin-1-yl)pyrimidine-5-carbonitrile], the IC50 was below 100 nM.

In the case of `C[C@@H](Nc1nc(N2CC([C@H]3CCCN(CCO)C3)C2)ncc1C(F)(F)F)c1ccc(Cl)cc1Cl` [Example 15, 2-((R)-3-(1-(4-(((R)-1-(2,4-dichlorophenyl)ethyl)amino)-5-(trifluoromethyl)pyrimidin-2-yl)azetidin-3-yl)piperidin-1-yl)ethan-1-ol], the IC50 is above 500 nM.

Consider `Cc1cnc(N2CC([C@H]3CCCN(CCN4CCCC4=O)C3)C2)nc1N[C@H](C)c1ccc(Cl)cc1Cl` [Example 16, 1-(2-((R)-3-(1-(4-(((R)-1-(2,4-dichlorophenyl)ethyl)amino)-5-methylpyrimidin-2-yl)azetidin-3-yl)piperidin-1-yl)ethyl)pyrrolidin-2-one], for which the IC50 was below 100 nM.

On to `Cc1cnc(N2CC([C@H]3CCCN([C@H]4C[C@@H](C(=O)O)C4)C3)C2)nc1N[C@H](C)c1ccc(Cl)cc1Cl` [Example 17, (1S,3s)-3-((R)-3-(1-(4-(((R)-1-(2,4-dichlorophenyl)ethyl)amino)-5-methylpyrimidin-2-yl)azetidin-3-yl)piperidin-1-yl)cyclobutane-1-carboxylic acid], for which the IC50 was below 100 nM.

Take `Cc1cnc(N2CC([C@H]3CCCN(C4CC(CO)C4)C3)C2)nc1N[C@H](C)c1ccc(Cl)cc1Cl` (stereo partly drawn) [Example 18, (3-((R)-3-(1-(4-(((R)-1-(2,4-dichlorophenyl)ethyl)amino)-5-methylpyrimidin-2-yl)azetidin-3-yl)piperidin-1-yl)cyclobutyl)methanol]: the half-maximal inhibitory concentration (IC50) was below 100 nM.

Consider `Cc1cnc(N2CC([C@H]3CCCN(CC(C)(C)O)C3)C2)nc1N[C@H](C)c1ccc(Cl)cc1Cl` [Example 19, 1-((R)-3-(1-(4-(((R)-1-(2,4-dichlorophenyl)ethyl)amino)-5-methylpyrimidin-2-yl)azetidin-3-yl)piperidin-1-yl)-2-methylpropan-2-ol], for which the IC50 was below 100 nM.

As to `C[C@@H](Nc1nc(N2CC([C@H]3CCCN([C@H]4C[C@](C)(C(=O)O)C4)C3)C2)nc2c1CCC2)c1ccc(Cl)cc1Cl` [Example 20, (1R,3r)-3-((R)-3-(1-(4-(((R)-1-(2,4-dichlorophenyl)ethyl)amino)-6,7-dihydro-5H-cyclopenta[d]pyrimidin-2-yl)azetidin-3-yl)piperidin-1-yl)-1-methylcyclobutane-1-carboxylic acid], the half-inhibitory concentration (IC50) was below 100 nM.

As to `C[C@]1(C(=O)O)C[C@H](N2CCC[C@H](C3CN(c4ncc(Cl)c(NCc5ccc(Cl)cc5Cl)n4)C3)C2)C1` [Example 21, (1R,3r)-3-((R)-3-(1-(5-chloro-4-((2,4-dichlorobenzyl)amino)pyrimidin-2-yl)azetidin-3-yl)piperidin-1-yl)-1-methylcyclobutane-1-carboxylic acid], the IC50 was above 500 nM.

As to `Cc1nc(N2CC([C@H]3CCCN([C@H]4C[C@](C)(C(=O)O)C4)C3)C2)nc(N[C@H](C)c2ccc(Cl)cc2Cl)c1C` [Example 22, (1R,3r)-3-((R)-3-(1-(4-(((R)-1-(2,4-dichlorophenyl)ethyl)amino)-5,6-dimethylpyrimidin-2-yl)azetidin-3-yl)piperidin-1-yl)-1-methylcyclobutane-1-carboxylic acid], the half-inhibitory concentration (IC50) is below 100 nM.

Regarding `CC[C@]1(C(=O)O)C[C@H](N2CCC[C@H](C3CN(c4ncc(Cl)c(N[C@H](C)c5ccc(Cl)cc5Cl)n4)C3)C2)C1` [Example 23, (1R,3s)-3-((R)-3-(1-(5-chloro-4-(((R)-1-(2,4-dichlorophenyl)ethyl)amino)pyrimidin-2-yl)azetidin-3-yl)piperidin-1-yl)-1-ethylcyclobutane-1-carboxylic acid], the IC50 was in the range of 100 to 500 nM.

On to `C[C@@H](Nc1nc(N2CC([C@H]3CCCN(CCO)C3)C2)nc2c1CCC2)c1ccc(Cl)cc1Cl` [Example 24, 2-((R)-3-(1-(4-(((R)-1-(2,4-dichlorophenyl)ethyl)amino)-6,7-dihydro-5H-cyclopenta[d]pyrimidin-2-yl)azetidin-3-yl)piperidin-1-yl)ethan-1-ol], for which the IC50 is 100 to 500 nM.

In the case of `C[C@@H](Nc1nc(N2CC([C@H]3CCCN([C@H]4C[C@@H](C(=O)O)C4)C3)C2)nc2ccccc12)c1ccc(Cl)cc1Cl` [Example 25, (1S,3s)-3-((R)-3-(1-(4-(((R)-1-(2,4-dichlorophenyl)ethyl)amino)quinazolin-2-yl)azetidin-3-yl)piperidin-1-yl)cyclobutane-1-carboxylic acid], the IC50 is below 100 nM.

Take `C[C@@H](Nc1nc(N2CC([C@H]3CCCN(CCO)C3)C2)nc2ccccc12)c1ccc(Cl)cc1Cl` [Example 26, 2-((R)-3-(1-(4-(((R)-1-(2,4-dichlorophenyl)ethyl)amino)quinazolin-2-yl)azetidin-3-yl)piperidin-1-yl)ethan-1-ol]: the IC50 is below 100 nM.

Consider `C[C@@H](Nc1nc(N2CC([C@H]3CCCN([C@H]4C[C@@](C)(C(=O)O)C4)C3)C2)nc2ccccc12)c1ccc(Cl)cc1Cl` [Example 27, (1S,3s)-3-((R)-3-(1-(4-(((R)-1-(2,4-dichlorophenyl)ethyl)amino)quinazolin-2-yl)azetidin-3-yl)piperidin-1-yl)-1-methylcyclobutane-1-carboxylic acid], for which the IC50 is below 100 nM.

Take `C[C@@H](Nc1nc(N2CC([C@H]3CCCN([C@H]4C[C@](C)(C(=O)O)C4)C3)C2)nc2ccsc12)c1ccc(Cl)cc1Cl` [Example 28, (1R,3r)-3-((R)-3-(1-(4-(((R)-1-(2,4-dichlorophenyl)ethyl)amino)thieno[3,2-d]pyrimidin-2-yl)azetidin-3-yl)piperidin-1-yl)-1-methylcyclobutane-1-carboxylic acid]: the half-maximal inhibitory concentration (IC50) is below 100 nM.

Consider `C[C@@H](Nc1nc(N2CC([C@H]3CCCN([C@H]4C[C@](C)(C(=O)O)C4)C3)C2)nc2sccc12)c1ccc(Cl)cc1Cl` [Example 29, (1R,3r)-3-((R)-3-(1-(4-(((R)-1-(2,4-dichlorophenyl)ethyl)amino)thieno[2,3-d]pyrimidin-2-yl)azetidin-3-yl)piperidin-1-yl)-1-methylcyclobutane-1-carboxylic acid], for which the IC50 was below 100 nM.

Usually IC50 stands for the concentration at which inhibition is half-maximal.
